ChEMBL document CHEMBL3739261, “Synthesis and antibacterial activity evaluation of C-5 side chain modified analogues of FYL-66, a potential agent against methicillin-resistant Staphylococcus aureus” (Medchemcomm, 2015)
≈ marks a conversion by molar mass, not a printed value. Calls of active or inactive are those of the source. The rule behind the calls is not given here.

Legend:
[1] = tested on: Enterococcus; assay: Antibacterial activity against Enterococcus; assay type: functional
[2] = tested on: Enterococcus; assay: Antibacterial activity against vancomycin-resistant Enterococcus; assay type: functional
[3] = tested on: Streptococcus pneumoniae; assay: Antibacterial activity against Penicillin-resistant Streptococcus pneumoniae; assay type: functional
[4] = tested on: Staphylococcus aureus; assay: Antibacterial activity against methicillin-resistant Staphylococcus aureus; assay type: functional
[5] = tested on: Escherichia coli; assay: Antibacterial activity against Escherichia coli ATCC 25922 incubated for 18 hrs by broth microdilution method; assay type: functional; conditions: ATCC 25922, 18 h
[6] = Cytotoxicity against human L02 cells after 48 hrs by MTT assay; assay type: cell-based; conditions: L02, 48 h
[7] = tested on: Pseudomonas aeruginosa; assay: Antibacterial activity against Pseudomonas aeruginosa ATCC 27853 incubated for 18 hrs by broth microdilution method; assay type: functional; conditions: ATCC 27853, 18 h
[8] = Cytotoxicity against HEK293A cells after 48 hrs by MTT assay; assay type: cell-based; conditions: Homo sapiens, HEK293-A
[9] = tested on: Staphylococcus aureus; assay: Antibacterial activity against methicillin-resistant Staphylococcus aureus ATCC 33591 in neutropenic Kunming mouse systemic infection model assessed as survival rate at 20 mg/kg, po administered 1 hr post inoculation measured on day 1 to 2; assay type: functional; conditions: ATCC 33591, po
[10] = tested on: Staphylococcus aureus; assay: Antibacterial activity against methicillin-resistant Staphylococcus aureus ATCC 33591 in neutropenic Kunming mouse systemic infection model assessed as survival rate at 20 mg/kg, po administered 1 hr post inoculation measured on day 3; assay type: functional
[11] = Octanol/water partition coefficient, log P of the compound by HPLC assay; assay type: physicochemical
[12] = tested on: Staphylococcus aureus; assay: Antibacterial activity against methicillin-susceptible Staphylococcus aureus ATCC 25923 incubated for 18 hrs by broth microdilution method; assay type: functional; conditions: ATCC 25923, 18 h
[13] = tested on: Staphylococcus aureus; assay: Antibacterial activity against methicillin-resistant Staphylococcus aureus ATCC 33591 incubated for 18 hrs by broth microdilution method; assay type: functional; conditions: ATCC 33591, 18 h
[14] = tested on: Staphylococcus aureus; assay: Antibacterial activity against methicillin-resistant Staphylococcus aureus ATCC 43300 incubated for 18 hrs by broth microdilution method; assay type: functional; conditions: ATCC 43300, 18 h
[15] = Solubility of compound in distilled water after 24 hrs by HPLC analysis; assay type: physicochemical
[16] = tested on: Staphylococcus aureus; assay: Antibacterial activity against methicillin-susceptible Staphylococcus aureus ATCC 29213 incubated for 18 hrs by broth microdilution method; assay type: functional; conditions: ATCC 29213, 18 h
[17] = tested on: Staphylococcus aureus; assay: Antibacterial activity against methicillin-susceptible Staphylococcus aureus ATCC 6538 incubated for 18 hrs by broth microdilution method; assay type: functional; conditions: ATCC 6538, 18 h
[18] = tested on: Staphylococcus aureus; assay: Antibacterial activity against methicillin-susceptible Staphylococcus aureus CMCC 2603 incubated for 18 hrs by broth microdilution method; assay type: functional; conditions: CMCC 2603, 18 h

SMILES | MIC [1] [µg/mL] | MIC [2] [µg/mL] | MIC [3] [µg/mL] | MIC [4] [µg/mL] | MIC [5] [µg/mL] | IC50 [6] [µg/mL] | MIC [7] [µg/mL] | IC50 [8] [µg/mL] | survival at 20 mg/kg [9] [%] | Activity [10] | logP [11] | MIC [12] [µg/mL] | MIC [13] [µg/mL] | MIC [14] [µg/mL] | solubility at 24 h [15] [µM] | MIC [16] [µg/mL] | MIC [17] [µg/mL] | MIC [18] [µg/mL]
CC(=O)NC[C@H]1CN(c2ccc(-n3cc(-c4ccccn4)cn3)c(F)c2)C(=O)O1.Cl | 0.25 | 0.25 | 0.25 | 0.25 | – | – | – | – | – | – | – | – | – | – | – | – | – | –
CC(=O)NC[C@H]1CN(c2ccc(N3CCOCC3)c(F)c2)C(=O)O1 [LINEZOLID] | – | – | – | – | > 32 | 213 (≈ 631 µM) | > 32 | 215 (≈ 637 µM) | 30 | Active | – | – | – | – | – | – | – | –
O=C(OC[C@H]1CN(c2ccc(-n3cc(-c4ccccn4)cn3)c(F)c2)C(=O)O1)c1ccccc1 | – | – | – | – | > 32 | > 400 | > 32 | > 400 | – | – | 4.21 | > 32 | > 32 | > 32 | ≤ 65.4 | > 32 | > 32 | > 32
CCC(=O)NC[C@H]1CN(c2ccc(-n3cc(-c4ccccn4)cn3)c(F)c2)C(=O)O1 | – | – | – | – | > 32 | 204 (≈ 498 µM) | > 32 | 389 (≈ 950 µM) | – | – | 2.2 | 4 (≈ 9.77 µM) | 4 (≈ 9.77 µM) | 4 (≈ 9.77 µM) | 147 (≈ 60 µg/mL) | 4 (≈ 9.77 µM) | 4 (≈ 9.77 µM) | 4 (≈ 9.77 µM)
COC(=O)CC1CCN(C[C@H]2CN(c3ccc(-n4cc(-c5ccccn5)cn4)c(F)c3)C(=O)O2)CC1 | – | – | – | – | > 32 | > 400 | > 32 | 224 (≈ 454 µM) | – | – | 1.78 | > 32 | > 32 | > 32 | 92.1 (≈ 45.5 µg/mL) | > 32 | > 32 | > 32
CC(=O)NC[C@H]1CN(c2ccc(-n3cc(-c4ccccn4)cn3)c(F)c2)C(=O)O1 | – | – | – | – | – | – | – | – | – | Active | – | – | – | – | – | – | – | –
CN1CCN(C[C@H]2CN(c3ccc(-n4cc(-c5ccccn5)cn4)c(F)c3)C(=O)O2)CC1 | – | – | – | – | > 32 | 70 (≈ 160 µM) | > 32 | 70 (≈ 160 µM) | – | – | 2.2 | > 32 | > 32 | > 32 | 1690 (≈ 738 µg/mL) | > 32 | > 32 | > 32
O=C1O[C@@H](CNC(=O)C(F)(F)F)CN1c1ccc(-n2cc(-c3ccccn3)cn2)c(F)c1 | – | – | – | – | > 32 | > 400 | > 32 | > 400 | – | – | ≥ 1.78 | > 64 | > 64 | > 64 | 114 (≈ 51 µg/mL) | > 64 | > 64 | > 64
CCN1CCN(C[C@H]2CN(c3ccc(-n4cc(-c5ccccn5)cn4)c(F)c3)C(=O)O2)CC1 | – | – | – | – | > 32 | 99 (≈ 220 µM) | > 32 | 99 (≈ 220 µM) | – | – | 2.19 | > 32 | > 32 | > 32 | 706 (≈ 318 µg/mL) | > 32 | > 32 | > 32
CNC(=O)[C@H]1CN(c2ccc(-n3cc(-c4ccccn4)cn3)c(F)c2)C(=O)O1 | – | – | – | – | > 32 | 217 (≈ 569 µM) | > 32 | 342 (≈ 897 µM) | – | – | 1.39 | 8 (≈ 21 µM) | 16 (≈ 42 µM) | 16 (≈ 42 µM) | 26.2 (≈ 9.99 µg/mL) | 8 (≈ 21 µM) | 8 (≈ 21 µM) | 8 (≈ 21 µM)
